Experiment [1] concerns the target T1, BaIMPDH (wild-type) (Bacillus anthracis, UniProt A0A6L8P2U9). Put plainly: biochemical. In kind it is biochemical.
Experiment [2] concerns the target T1, BaIMPDH (wild-type). Put plainly: biochemical. Particulars: Ki,app.
The target in experiment [3] is T1, BaIMPDH (wild-type). Put plainly: biochemical.
The target in another experiment is BaIMPDH (Bacillus anthracis, UniProt A0A6L8P2U9). Kind of experiment: biochemical. In kind it is biochemical.
In experiment [4] the test system is BaIMPDH (wild-type). Conditions: cited from earlier work.
Experiment [5] deals with T1, BaIMPDH (wild-type). In kind it is biochemical.
In another experiment the target is CjIMPDH (Campylobacter jejuni, UniProt Q0P9J4, DEL92-194/T195G). Kind of experiment: biochemical. Conditions: Ki,app.
The next experiment concerns the target SpIMPDH (Streptococcus pyogenes, UniProt P0C0H6). Put plainly: biochemical.
In a further experiment the target is SaIMPDH (Staphylococcus aureus, UniProt Q6GJQ7). Kind of experiment: biochemical.
For a further experiment, the target named is CpIMPDH (Cryptosporidium parvum, UniProt Q8T6T2). Put plainly: biochemical.
The next experiment deals with Ba-, Cj-, and ClpIMPDH. It is filed as biochemical.
Experiment [6] addresses T1, BaIMPDH (wild-type). Kind of experiment: biochemical. The source holds these as a separate data set.
[7] abbreviates: k–9/k9, inhibitor dissociation constant from E-XMP*.
Where [8] appears, read: k–8/k8, inhibitor dissociation constant from E·IMP.

These results are taken from paper PMC11841048 (ACS Infectious Diseases, 2025).

Several values for one entry are separate records, joined by “and”; a condition that tells them apart may be missing. Equal entries are not always repeated. Where two headings read alike, the source gives them in different places.

T1 sequence (A0A6L8P2U9 221-487, added parts left off): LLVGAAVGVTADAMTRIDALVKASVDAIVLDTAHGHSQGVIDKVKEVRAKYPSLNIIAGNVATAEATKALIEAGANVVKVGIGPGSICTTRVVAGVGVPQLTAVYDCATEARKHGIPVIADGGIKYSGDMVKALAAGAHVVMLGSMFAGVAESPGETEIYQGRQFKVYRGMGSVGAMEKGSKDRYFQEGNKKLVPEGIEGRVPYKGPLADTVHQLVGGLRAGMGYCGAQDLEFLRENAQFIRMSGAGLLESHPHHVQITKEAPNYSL
Sequence of BaIMPDH (A0A6L8P2U9 221-487, added parts left off): as above
Sequence of SaIMPDH (Q6GJQ7 whole entry): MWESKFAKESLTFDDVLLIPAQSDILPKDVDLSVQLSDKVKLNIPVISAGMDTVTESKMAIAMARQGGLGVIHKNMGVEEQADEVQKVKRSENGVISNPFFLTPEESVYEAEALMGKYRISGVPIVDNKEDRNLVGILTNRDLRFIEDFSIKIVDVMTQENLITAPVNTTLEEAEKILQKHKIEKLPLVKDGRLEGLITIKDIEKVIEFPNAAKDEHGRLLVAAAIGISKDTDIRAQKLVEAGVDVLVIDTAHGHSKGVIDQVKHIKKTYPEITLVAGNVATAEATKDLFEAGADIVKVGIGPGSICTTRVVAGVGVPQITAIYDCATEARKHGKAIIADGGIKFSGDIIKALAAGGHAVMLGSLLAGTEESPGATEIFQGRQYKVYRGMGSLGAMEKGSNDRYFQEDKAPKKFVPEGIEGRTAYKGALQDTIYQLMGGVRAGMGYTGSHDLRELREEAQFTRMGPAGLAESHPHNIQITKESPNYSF
Sequence of CpIMPDH (Q8T6T2 whole entry): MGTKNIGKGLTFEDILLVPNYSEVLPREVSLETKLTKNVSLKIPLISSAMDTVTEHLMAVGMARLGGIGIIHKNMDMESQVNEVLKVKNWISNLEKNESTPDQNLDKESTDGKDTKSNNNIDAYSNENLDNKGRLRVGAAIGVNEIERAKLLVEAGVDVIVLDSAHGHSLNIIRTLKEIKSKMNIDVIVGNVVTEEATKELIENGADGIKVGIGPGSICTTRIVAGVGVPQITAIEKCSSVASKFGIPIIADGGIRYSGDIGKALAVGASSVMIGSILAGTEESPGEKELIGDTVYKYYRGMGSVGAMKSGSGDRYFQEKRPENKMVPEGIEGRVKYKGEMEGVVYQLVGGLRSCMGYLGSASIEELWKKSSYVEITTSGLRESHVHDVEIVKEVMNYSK
Sequence of SpIMPDH (P0C0H6 whole entry): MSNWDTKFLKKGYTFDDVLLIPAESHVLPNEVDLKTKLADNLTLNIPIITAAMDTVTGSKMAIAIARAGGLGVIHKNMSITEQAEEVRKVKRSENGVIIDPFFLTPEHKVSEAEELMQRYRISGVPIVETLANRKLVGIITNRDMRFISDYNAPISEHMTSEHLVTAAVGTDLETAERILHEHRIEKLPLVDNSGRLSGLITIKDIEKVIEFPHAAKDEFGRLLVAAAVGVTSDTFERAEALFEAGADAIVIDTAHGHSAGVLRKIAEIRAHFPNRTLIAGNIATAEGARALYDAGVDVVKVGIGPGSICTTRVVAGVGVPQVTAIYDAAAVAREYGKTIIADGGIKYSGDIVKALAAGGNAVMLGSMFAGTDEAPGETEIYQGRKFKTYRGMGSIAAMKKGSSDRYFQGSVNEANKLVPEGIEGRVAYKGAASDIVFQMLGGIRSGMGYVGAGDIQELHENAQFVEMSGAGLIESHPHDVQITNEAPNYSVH

With `C[C@@H](Oc1cc[n+]([O-])c2ccccc12)c1cn(-c2ccc(Cl)cc2)nn1` [A110], the Kd on BaIMPDH (wild-type) [1] (k–8/k8) worked out at 1.7 µM; on BaIMPDH (wild-type) [1] (k–9/k9) it was 0.085 µM; on BaIMPDH (wild-type) [3] (setting [7]), 0.065 µM. In addition, at BaIMPDH (wild-type) [1] (read-out: k8 (inhibitor association with E·IMP)), the kon at 6 µM amounted to 9.33e+06 M⁻¹ s⁻¹. For the same compound, at BaIMPDH (wild-type) [1] (read-out: k9 (inhibitor association with E-XMP*)), the kon was found to be 3.52e+06 M⁻¹ s⁻¹. Also, the koff was found to be 15.6 s⁻¹ at BaIMPDH (wild-type) [1] (read-out: k–8 (inhibitor dissociation from E·IMP·I)) and 0.3 s⁻¹ on BaIMPDH (wild-type) [1] (read-out: k–9 (inhibitor dissociation from E-XMP*·I)). Besides, on BaIMPDH (wild-type) [2], the Ki was 0.081 µM and 0.059 µM.
Consider `Nc1ncnc2c1ncn2[C@@H]1O[C@H](COP(=O)(O)OP(=O)(O)O)[C@@H](O)[C@H]1O` [ADP], for which the Ki at BaIMPDH (read-out: Ki,app) came out at 6200 µM.
`O=C(Cn1c(-c2ccccn2)nc2ccccc21)Nc1ccc2ccccc2c1` [C91]: the “fold more potent inhibitor of BaIMPDH” value with BaIMPDH (wild-type) [4] is given as 10 fold. Moreover, at BaIMPDH (wild-type) [3], the k-9 is 0.0976. In addition, the Kd at BaIMPDH (wild-type) [3] (setting [8]) is 0.28 µM; on BaIMPDH (wild-type) [3] (setting [7]), 0.11 µM. The koff on BaIMPDH (wild-type) [3] (read-out: k-8) was found to be 0.239 s⁻¹; at BaIMPDH (wild-type) [3] (read-out: k-9), 0.0844 s⁻¹.
In the case of `Cn1nc(CC(=O)Nc2ccc3oc4c(c3c2)CCCC4)c2ccccc2c1=O` [D67], the Ki on BaIMPDH (wild-type) [2] was 0.698 µM and 0.671 µM. Besides, the Kd at BaIMPDH (wild-type) [3] (setting [8]) is 1.1 µM; on BaIMPDH (wild-type) [3] (setting [7]), 0.42 µM.
As to `NC(=O)C1=CN([C@@H]2O[C@H](COP(=O)(O)OP(=O)(O)OC[C@H]3O[C@@H](n4cnc5c(N)ncnc54)[C@H](O)[C@@H]3O)[C@@H](O)[C@H]2O)C=CC1` [NADH], on BaIMPDH (wild-type) [1], the “k4 (NADH release)” value is given as more than 446 s^–1 and the “k–4 (NADH association)” value is reported as more than 3.8 μM^–1 s^–1. Further, the Kd at BaIMPDH (wild-type) [1] (read-out: k4/k–4) came to 120 µM.
For the compound `NC(=O)c1ccc[n+]([C@@H]2O[C@H](COP(=O)([O-])OP(=O)(O)OC[C@H]3O[C@@H](n4cnc5c(N)ncnc54)[C@H](O)[C@@H]3O)[C@@H](O)[C@H]2O)c1` [NAD^+], the “apparent Michaelis constant for NAD+, KmB” value at BaIMPDH (wild-type) [5] is 683 [ 601 , 779 ] µM. Also, the Ki on BaIMPDH (wild-type) [5] (read-out: Ki(NAD^+)) came to 9600 ± 2100 µM. Besides, at BaIMPDH (wild-type) [5] (read-out: Km(NAD^+)), the Km (as a rule, the substrate concentration at which the rate is half of its maximum) is 590 ± 100 µM. Also, at BaIMPDH (wild-type) [1], the “k2 (NAD^+ association with E·IMP)” value turned out to be 0.0309 μM^–1 s^–1, the “k7 (NAD^+ association with E-XMP*)” value turned out to be 0.00398 μM^–1 s^–1, the “k–2 (NAD^+ dissociation from E·IMP·NAD^+)” value is given as 11.7 s^–1 and the “k–7 (NAD^+ dissociation from E-XMP*·NAD^+)” value is on record as 31.8 s^–1. The Kd on BaIMPDH (wild-type) [1] (read-out: k–2/k2) came to 380 µM. In addition, at BaIMPDH (wild-type) [1] (read-out: k–7/k7), the Kd was determined as 8000 µM.
Consider `C/C(=N\O)c1cccc(C(C)(C)NC(=O)Nc2ccc(Cl)c(C(N)=O)c2)c1` [P32], for which the Ki at CjIMPDH is 0.095 ± 0.005 µM; on SpIMPDH, 0.164 ± 0.01 µM; on SaIMPDH, 0.023 ± 0.01 µM; at CpIMPDH it was 0.005 ± 0.002 µM; at BaIMPDH (wild-type) [2], 0.052 µM and 0.047 µM.
In the case of `C/C(=N\OCCN)c1cccc(C(C)(C)NC(=O)Nc2ccc(Cl)c([N+](=O)[O-])c2)c1` [P131], the Ki on BaIMPDH (wild-type) [2] stood at 0.094 µM. The Kd at BaIMPDH (wild-type) [3] (setting [8]) came to 0.11 µM; on BaIMPDH (wild-type) [3] (setting [7]), 0.061 µM.
As to `C=C(C)c1cccc(C(C)(C)NC(=O)Nc2ccc(Cl)c(NC3OCC(O)C(O)C3O)c2)c1` (stereo not shown) [P176], the Ki at CjIMPDH is 0.177 µM and 0.077 µM; at BaIMPDH (wild-type) [2] it was 0.016 µM.
On to `C=C(C)c1cccc(C(C)(C)NC(=O)Nc2ccc(Cl)c(OC3OC(CO)C(O)C3O)c2)c1` (stereo not shown) [P178], for which the Ki at CjIMPDH amounted to 0.097 µM; at BaIMPDH (wild-type) [2], 0.012 µM. The “difference in affinity across the three enzymes” value with Ba-, Cj-, and ClpIMPDH is on record as more than 5 fold.
`C/C(=N\O)c1cccc(C(C)(C)NC(=O)Nc2ccc(Cl)c(-c3nc(C(F)(F)F)cs3)c2)c1` [P182]: the Ki on CjIMPDH was 0.032 ± 0.006 µM; on BaIMPDH (wild-type) [2], 0.008 µM.
With `CC(C)(NC(=O)Nc1ccc(Cl)cc1)c1cccc(/C(N)=N/O)c1` [P200], the Ki at CjIMPDH is 0.145 ± 0.04 µM; at BaIMPDH (wild-type) [2], 0.016 µM. The “difference in affinity across the three enzymes” value in the experiment with Ba-, Cj-, and ClpIMPDH is recorded as more than 5 fold.
Consider `C=C(C)c1cccc(C(C)(C)NC(=O)Nc2ccc(Cl)c(NC3OC[C@@H](O)[C@H](O)[C@@H]3O)c2)c1` (stereo partly shown) [P221], for which the Ki at CjIMPDH amounted to 0.046 µM; at BaIMPDH (wild-type) [2] it was 0.02 µM.
On to `C=C(C)c1cccc(C(C)(C)NC(=O)Nc2ccc(Cl)c(OCC(=O)O)c2)c1` [P225], for which the Ki at CjIMPDH is 0.02 ± 0.01 µM; at BaIMPDH (wild-type) [2], 0.004 µM and 0.00043 µM.
Turning to `C[C@H](Oc1cccc2ccccc12)C(=O)Nc1ccc2oc(-c3ccncc3)nc2c1` [Q21], the Ki at BaIMPDH (wild-type) [2] is 0.063 µM and 0.023 µM. The “preference for E-XMP* over E·IMP” value at BaIMPDH (wild-type) [3] was “same affinity for both enzyme forms”. For the same compound, the figures for the Kd at BaIMPDH (wild-type) [3] (setting [8]) and at BaIMPDH (wild-type) [3] (setting [7]) were 0.038 µM and 0.043 µM, respectively.
In turn, `O=c1[nH]c(=O)c2ncn([C@@H]3O[C@H](COP(=O)(O)O)[C@@H](O)[C@H]3O)c2[nH]1` [XMP, xanthosine 5′-monophosphate] gave a Kd on BaIMPDH (wild-type) [6] of 404 µM.
Consider `NC(=O)c1csc([C@@H]2O[C@H](CO)[C@@H](O)[C@H]2O)n1` [tiazofurin], for which the Ki at BaIMPDH came to 620 µM.
